# Experiments:
# [1] = system: human telomerase; experiment: Telomerase activity by improved TRAP in transfected FaDu cells; assay type: cell-based
# Method: Inhibition of telomerase activity in cell lysates and intact cells. The modified Telomeric Repeat Amplification Protocol (TRAP) assay (Gan, et al., Pharm. Res., 18:488-493, 2001) was used to detect telomerase activity in cell lysate. The telomerase activity in intact cells was measured using intracellular TRAP, as follows. Cells (1×10^5) were washed twice with PBS and centrifuged. The cell pellet was resuspended in 100 μl of serum-free RPMI 1640 containing 5 u/ml of Streptolysin O, 2 μM of TS primer, and 50 μM of dNTP, and incubated at room temperature for 5 min. The enzyme streptolysin O was used to increase the cell membrane permeability to the TS primer. Upon entering a cell, the TS primer was elongated by the intracellular telomerase in situ. The elongated TS primer was then isolated from the cells and used as the template for PCR amplification. Then 200 μl of RPMI 1640 medium containing 10% FBS was added to the cells to stop the permeating process. […] The cells were then lyzed and the cell lysates, which contained the already extended TS primer, was directly analyzed by TRAP.
# (§1) Effect of hTR antisense on telomere length and telomerase activity. Telomere length (referred to as terminal restriction fragment) was measured using the TALA method. Telomerase activity was measured using the improved TRAP method.
# [2] = system: telomere length in FaDu cells; experiment: Telomere length (terminal restriction fragment) by TALA in transfected FaDu cells; assay type: cell-based, human
# Description: Measurement of telomere length in cultured cells. Two methods were used to measure telomere length. The first method was a solution hybridization based telomere amount and length assay (TALA) (Gan, et al., Pharm. Res., 18:1655-1659, 2001) that measures the mean length of the terminal restriction fragments (TRF). The second method was fluorescence in situ hybridization (FISH) to detect telomere signal and to estimate the approximate length of individual telomere structures at the end of chromosomes. The FISH method is as described in U.S. patent application Ser. No. 09/587,662 and Gan, et al., 2001.
# as §1
# [3] = system: FaDu cells; experiment: Cell growth of FaDu cells transfected with hTR antisense or sense; assay type: cell-based, human
# Description: hTR antisense inhibits telomerase. The antisense study consisted of the following steps: (a) construction of a sense and antisense to the RNA portion of the human telomerase (hTR), (b) stable transfection of cells with the hTR antisense (or hTR sense control), and (c) determination of the ability of the hTR antisense to inhibit telomerase activity and induce telomere shortening. The methodologies are detailed in the art, for example, by Mo et al., Cancer Res. 2003.
# Transfection procedures. Transfection of the antisense construct used an IPTG-inducible mammalian expression system. The resulting clones were used for experiments.
# Effect of hTR antisense on cell growth. Table 2 summarizes the results which show a slower growth rate for the antisense +IPTG cells (i.e., cells that were transfected by hTR antisense and treated with IPTG to induce the expression of […]) compared to cells that had either not been transfected with the antisense, not transfected but treated with IPTG, transfected with the sense and treated with IPTG, or transfected with the antisense but without the IPTG induction (i.e., control, +IPTG, +sense +IPTG, and antisense).
compound,measurement,setting,value
CC(C)S[C@@H]1O[C@H](CO)[C@H](O)[C@H](O)[C@H]1O [+IPTG],"Telomerase activity, % of control",[1],98.9 % of control
same,Terminal restriction fragment,[2],2.91 kb
same,Doubling time,[3],23 h

# From patent US20050282893A1 (priority 2004, published 2005)
